BindingDB's records for PubMed 35176561 (Shenyang Pharmaceutical University, 2022)

Molecular target: Amyloid-beta precursor protein (Homo sapiens, UniProt P05067)
Test: Inhibition of amyloid beta 42 (unknown origin) secretion

Sequence of Amyloid-beta precursor protein (P05067 whole entry): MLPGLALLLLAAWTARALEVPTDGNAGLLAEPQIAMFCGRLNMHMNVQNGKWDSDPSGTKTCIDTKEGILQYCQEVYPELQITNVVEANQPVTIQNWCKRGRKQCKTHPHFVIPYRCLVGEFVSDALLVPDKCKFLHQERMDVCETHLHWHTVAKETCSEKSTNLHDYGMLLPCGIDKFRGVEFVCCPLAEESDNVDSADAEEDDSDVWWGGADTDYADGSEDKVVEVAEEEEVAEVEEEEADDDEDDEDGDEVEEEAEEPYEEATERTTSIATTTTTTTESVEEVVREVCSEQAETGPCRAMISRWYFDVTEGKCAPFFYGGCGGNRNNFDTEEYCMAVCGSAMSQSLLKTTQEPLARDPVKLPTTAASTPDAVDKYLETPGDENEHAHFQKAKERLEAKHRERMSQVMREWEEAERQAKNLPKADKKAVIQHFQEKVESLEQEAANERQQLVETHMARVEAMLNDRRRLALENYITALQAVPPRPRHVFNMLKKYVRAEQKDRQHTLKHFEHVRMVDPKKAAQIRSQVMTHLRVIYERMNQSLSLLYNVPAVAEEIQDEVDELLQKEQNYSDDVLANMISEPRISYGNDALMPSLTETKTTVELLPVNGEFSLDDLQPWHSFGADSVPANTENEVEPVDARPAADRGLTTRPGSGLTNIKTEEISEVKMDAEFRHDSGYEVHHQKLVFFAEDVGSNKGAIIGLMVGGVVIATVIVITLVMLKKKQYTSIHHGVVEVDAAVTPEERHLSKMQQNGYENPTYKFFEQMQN

Row | IC50 | Structure (SMILES)
1 | 4.1 nM | COc1nc(-c2cc(C)c(N[C@@H](C)c3cc(F)cc(F)c3)nn2)ccc1-n1cnc(C)c1
2 | 5.3 nM | COc1nc(-c2cc(C)c(N[C@@H](C)c3cc(F)c(F)c(F)c3)nn2)ccc1-n1cnc(C)c1
